Data reported in ChEMBL document CHEMBL1687836, “Oral hexadecyloxypropyl-cidofovir therapy in pregnant guinea pigs improves outcome in the congenital model of cytomegalovirus infection” (Antimicrob Agents Chemother, 2011).
Active and inactive are the calls of the source. The calls are words filed in the database; no cut-off is given here.

Tests used:
Caviid betaherpesvirus 2 [1] = assay: Antiviral activity against Guinea pig cytomegalovirus strain 22122 infected in second and third trimesters of pregnant Hartley guinea pig assessed as reduction in viral DNA level in dam spleen at 20 mg/kg, po once at 24 hrs post infection and once at 7 days post infection relative to dam control; assay type: functional
Caviid betaherpesvirus 2 [2] = assay: Antiviral activity against Guinea pig cytomegalovirus strain 22122 infected in second and third trimesters of pregnant Hartley guinea pig assessed as dam placenta with detectable viral DNA at 4 mg/kg, po qd for 9 days measured 10 days post infection by real-time PCR (reference value: 100%); assay type: functional
Cavia porcellus [3] = assay: Toxicity in Guinea pig cytomegalovirus strain 22122 infected second and third trimesters of pregnant Hartley guinea pig assessed as pup kidney toxicity at 4 mg/kg, po treatment started at 24 hrs post infection for 9 consecutive days; assay type: organism-based; design: dose 4 mg/kg, route oral; conditions: in vivo
Caviid betaherpesvirus 2 [4] = assay: (§1) Antiviral activity against Guinea pig cytomegalovirus strain 22122 infected in second and third trimesters of pregnant Hartley guinea pig assessed as dam liver viral log10 genome copies/ug of DNA at 4 mg/kg, po qd for 5 days measured 10 days post infection by real-time PCR (reference value: 4.82 +/- 0.8 log10 genome copies/ug of DNA); assay type: functional
Caviid betaherpesvirus 2 [5] = assay: Antiviral activity against Guinea pig cytomegalovirus strain 22122 infected in second and third trimesters of pregnant Hartley guinea pig assessed as pregnancy outcome measured as live-born pups at 4 mg/kg, po treatment started at 24 hrs post infection for 5 consecutive days (reference value: 62.5%); assay type: functional
Cavia porcellus [6] = assay: Toxicity in Guinea pig cytomegalovirus strain 22122 infected second and third trimesters of pregnant Hartley guinea pig assessed as dam liver toxicity at 4 mg/kg, po treatment started at 24 hrs post infection for 9 consecutive days; assay type: organism-based; design: dose 4 mg/kg, route oral; conditions: in vivo
Caviid betaherpesvirus 2 [7] = assay: Antiviral activity against Guinea pig cytomegalovirus strain 22122 infected in second and third trimesters of pregnant Hartley guinea pig assessed as fetus liver with detectable viral DNA at 4 mg/kg, po qd for 5 days measured 10 days post infection by real-time PCR (reference value: 87%); assay type: functional
Caviid betaherpesvirus 2 [8] = assay: Antiviral activity against Guinea pig cytomegalovirus strain 22122 infected in second and third trimesters of pregnant Hartley guinea pig assessed as reduction in pups with detectable viral DNA at 20 mg/kg, po once at 24 hrs post infection and once at 7 days post infection; assay type: functional, organism-based; design: dose 20 mg/kg; conditions: Guinea pig cytomegalovirus (strain 22122 / ATCC VR682) (GPCMV)
Caviid betaherpesvirus 2 [9] = assay: Antiviral activity against Guinea pig cytomegalovirus strain 22122 infected in second and third trimesters of pregnant Hartley guinea pig assessed as reduction in viral DNA level in pup liver at 20 mg/kg, po once at 24 hrs post infection and once at 7 days post infection relative to control pup; assay type: functional
Caviid betaherpesvirus 2 [10] = assay: Antiviral activity against Guinea pig cytomegalovirus strain 22122 infected in second and third trimesters of pregnant Hartley guinea pig assessed as pup spleen containing detectable viral DNA at 20 mg/kg, po once at 24 hrs post infection and once at 7 days post infection (reference value: 44%); assay type: functional
Cavia porcellus [11] = assay: Toxicity in Guinea pig cytomegalovirus strain 22122 infected second and third trimesters of pregnant Hartley guinea pig assessed as decreased animal activity at 4 mg/kg, po treatment started at 24 hrs post infection for 5 consecutive days; assay type: organism-based; design: dose 4 mg/kg, route oral; conditions: in vivo
Cavia porcellus [12] = assay: Toxicity in Guinea pig cytomegalovirus strain 22122 infected second and third trimesters of pregnant Hartley guinea pig assessed as pup liver toxicity at 4 mg/kg, po treatment started at 24 hrs post infection for 9 consecutive days; assay type: organism-based; design: dose 4 mg/kg, route oral; conditions: in vivo
[13] = Cytotoxicity against guinea pig CCL158 cells after 10 days by crystal violet staining; assay type: cell-based, Cavia porcellus
Cavia porcellus [14] = assay: Toxicity in Guinea pig cytomegalovirus strain 22122 infected second and third trimesters of pregnant Hartley guinea pig assessed as low birth weight pups at 20 mg/kg, po once at 24 hrs post infection and once 7 days post infection (reference value: 107 +/- 10 g); assay type: organism-based; design: dose 20 mg/kg, route oral; conditions: in vivo
Cavia porcellus [15] = assay: Toxicity in Guinea pig cytomegalovirus strain 22122 infected second and third trimesters of pregnant Hartley guinea pig assessed as low birth weight pups at 4 mg/kg, po treatment started at 24 hrs post infection for 5 consecutive days (reference value: 107 +/- 10 g); assay type: organism-based; design: dose 4 mg/kg, route oral; conditions: in vivo
Cavia porcellus [16] = assay: Toxicity in Guinea pig cytomegalovirus strain 22122 infected second and third trimesters of pregnant Hartley guinea pig assessed as animal weight loss at 4 mg/kg, po treatment started at 24 hrs post infection for 5 consecutive days; assay type: organism-based; design: dose 4 mg/kg, route oral; conditions: in vivo
[17] = Selectivity index, ratio of CC50 for guinea pig CCL158 cells to IC50 for Guinea pig cytomegalovirus strain 22122; assay type: functional
Caviid betaherpesvirus 2 [18] = assay: Antiviral activity against Guinea pig cytomegalovirus strain 22122 infected in second and third trimesters of pregnant Hartley guinea pig assessed as fetus liver with detectable viral DNA at 4 mg/kg, po qd for 9 days measured 10 days post infection by real-time PCR (reference value: 87%); assay type: functional
Caviid betaherpesvirus 2 [19] = assay: Antiviral activity against Guinea pig cytomegalovirus strain 22122 infected in second and third trimesters of pregnant Hartley guinea pig assessed as increase in pup survival at 20 mg/kg, po once at 24 hrs post infection and once at 7 days post infection; assay type: functional, organism-based; design: dose 20 mg/kg; conditions: Guinea pig cytomegalovirus (strain 22122 / ATCC VR682) (GPCMV)
Caviid betaherpesvirus 2 [20] = assay: Antiviral activity against Guinea pig cytomegalovirus strain 22122 infected in second and third trimesters of pregnant Hartley guinea pig assessed as fetus spleen with detectable viral DNA at 4 mg/kg, po qd for 9 days measured 10 days post infection by real-time PCR (reference value: 47%); assay type: functional
Caviid betaherpesvirus 2 [21] = assay: Antiviral activity against Guinea pig cytomegalovirus strain 22122 infected in second and third trimesters of pregnant Hartley guinea pig assessed as reduction in viral DNA level in dam liver at 20 mg/kg, po once at 24 hrs post infection and once at 7 days post infection relative to dam control; assay type: functional
Caviid betaherpesvirus 2 [22] = assay: as §1, with “spleen” for “liver”, “4.12” for “4.82”, “0.3” for “0.8”; assay type: functional
Cavia porcellus [23] = assay: Toxicity in Guinea pig cytomegalovirus strain 22122 infected second and third trimesters of pregnant Hartley guinea pig assessed as adverse effect on complete blood count at 4 mg/kg, po treatment started at 24 hrs post infection for 9 consecutive days; assay type: organism-based; design: dose 4 mg/kg, route oral; conditions: in vivo
Caviid betaherpesvirus 2 [24] = assay: Antiviral activity against Guinea pig cytomegalovirus strain 22122 infected guinea pig CCL158 cells assessed as plaque reduction measured after 10 days by plaque reduction assay; assay type: functional, organism-based; conditions: Caviid betaherpesvirus 2, CCL158, 240 h
Caviid betaherpesvirus 2 [25] = assay: as §1, with “fetus” for “dam”, “2.20” for “4.82”, “0.6” for “0.8”; assay type: functional
Caviid betaherpesvirus 2 [26] = assay: Antiviral activity against Guinea pig cytomegalovirus strain 22122 infected in second and third trimesters of pregnant Hartley guinea pig assessed as fetus spleen with detectable viral DNA at 4 mg/kg, po qd for 5 days measured 10 days post infection by real-time PCR (reference value: 47%); assay type: functional
Caviid betaherpesvirus 2 [27] = assay: Antiviral activity against Guinea pig cytomegalovirus strain 22122 infected in second and third trimesters of pregnant Hartley guinea pig assessed as pup liver containing detectable viral DNA at 20 mg/kg, po once at 24 hrs post infection and once at 7 days post infection (reference value: 73%); assay type: functional
Caviid betaherpesvirus 2 [28] = assay: as §1, with “fetus” for “dam”, “9” for “5”, “2.20” for “4.82”, “0.6” for “0.8”; assay type: functional
Cavia porcellus [29] = assay: Toxicity in Guinea pig cytomegalovirus strain 22122 infected second and third trimesters of pregnant Hartley guinea pig assessed as decreased animal activity at 20 mg/kg, po once at 24 hrs post infection and once 7 days post infection; assay type: organism-based; design: dose 20 mg/kg, route oral; conditions: in vivo
Caviid betaherpesvirus 2 [30] = assay: as §1, with “9” for “5”; assay type: functional
Caviid betaherpesvirus 2 [31] = assay: Antiviral activity against Guinea pig cytomegalovirus strain 22122 infected in second and third trimesters of pregnant Hartley guinea pig assessed as dam placenta with detectable viral DNA at 4 mg/kg, po qd for 5 days measured 10 days post infection by real-time PCR (reference value: 100%); assay type: functional
Caviid betaherpesvirus 2 [32] = assay: as §1, with “spleen” for “liver”, “9” for “5”, “4.12” for “4.82”, “0.3” for “0.8”; assay type: functional
Cavia porcellus [33] = assay: Toxicity in Guinea pig cytomegalovirus strain 22122 infected second and third trimesters of pregnant Hartley guinea pig assessed as dam kidney toxicity at 4 mg/kg, po treatment started at 24 hrs post infection for 9 consecutive days; assay type: organism-based; design: dose 4 mg/kg, route oral; conditions: in vivo
Caviid betaherpesvirus 2 [34] = assay: as §1, with “fetus spleen” for “dam liver”, “9” for “5”, “1.63” for “4.82”, “0.6” for “0.8”; assay type: functional
Caviid betaherpesvirus 2 [35] = assay: Antiviral activity against Guinea pig cytomegalovirus strain 22122 infected in second and third trimesters of pregnant Hartley guinea pig assessed as pregnancy outcome measured as live-born pups at 20 mg/kg, po once at 24 hrs post infection and once 7 days post infection; assay type: functional
Caviid betaherpesvirus 2 [36] = assay: Antiviral activity against Guinea pig cytomegalovirus strain 22122 infected in second and third trimesters of pregnant Hartley guinea pig assessed as dam liver with detectable viral DNA at 4 mg/kg, po qd for 5 days measured 10 days post infection by real-time PCR (reference value: 100%); assay type: functional
Caviid betaherpesvirus 2 [37] = assay: Antiviral activity against Guinea pig cytomegalovirus strain 22122 infected in second and third trimesters of pregnant Hartley guinea pig assessed as reduction in dam viremia at 4 mg/kg, po qd for 5 days; assay type: functional, organism-based; design: dose 4 mg/kg; conditions: Guinea pig cytomegalovirus (strain 22122 / ATCC VR682) (GPCMV)
Caviid betaherpesvirus 2 [38] = assay: Antiviral activity against Guinea pig cytomegalovirus strain 22122 infected in second and third trimesters of pregnant Hartley guinea pig assessed as dam liver with detectable viral DNA at 4 mg/kg, po qd for 9 days measured 10 days post infection by real-time PCR (reference value: 100%); assay type: functional
Cavia porcellus [39] = assay: Toxicity in Guinea pig cytomegalovirus strain 22122 infected second and third trimesters of pregnant Hartley guinea pig assessed as animal weight loss at 20 mg/kg, po once at 24 hrs post infection and once 7 days post infection; assay type: organism-based; design: dose 20 mg/kg, route oral; conditions: in vivo
Cavia porcellus [40] = assay: Toxicity in Guinea pig cytomegalovirus strain 22122 infected second and third trimesters of pregnant Hartley guinea pig assessed as adverse effect on complete blood count in new born pups at 4 mg/kg, po treatment started at 24 hrs post infection for 9 consecutive days; assay type: organism-based; design: dose 4 mg/kg, route oral; conditions: in vivo
Caviid betaherpesvirus 2 [41] = assay: Antiviral activity against Guinea pig cytomegalovirus strain 22122 infected in second and third trimesters of pregnant Hartley guinea pig assessed as dam spleen with detectable viral DNA at 4 mg/kg, po qd for 5 days measured 10 days post infection by real-time PCR (reference value: 100%); assay type: functional
Caviid betaherpesvirus 2 [42] = assay: Antiviral activity against Guinea pig cytomegalovirus strain 22122 infected in second and third trimesters of pregnant Hartley guinea pig assessed as reduction in viral DNA level in pup spleen at 20 mg/kg, po once at 24 hrs post infection and once at 7 days post infection relative to control pup; assay type: functional
Caviid betaherpesvirus 2 [43] = assay: Antiviral activity against Guinea pig cytomegalovirus strain 22122 infected in second and third trimesters of pregnant Hartley guinea pig assessed as reduction in dam blood viral log10 genome copies/ug of DNA at 20 mg/kg, po once at 24 hrs post infection and once at 7 days post infection (reference value: 3.22 +/- 0.2 log10 genome copies/ug DNA); assay type: functional
Caviid betaherpesvirus 2 [44] = assay: as §1, with “fetus spleen” for “dam liver”, “1.63” for “4.82”, “0.6” for “0.8”; assay type: functional
Caviid betaherpesvirus 2 [45] = assay: Antiviral activity against Guinea pig cytomegalovirus strain 22122 infected in second and third trimesters of pregnant Hartley guinea pig assessed as dam spleen with detectable viral DNA at 4 mg/kg, po qd for 9 days measured 10 days post infection by real-time PCR (reference value: 100%); assay type: functional

CCCCCCCCCCCCCCCCOCCCOP(=O)(O)CO[C@H](CO)Cn1ccc(N)nc1=O [BRINCIDOFOVIR]
fold change (FC) (Caviid betaherpesvirus 2 [1]): 5 | Activity (Caviid betaherpesvirus 2 [2]): 100% | Activity (Cavia porcellus [3]): Non-toxic | Activity (Caviid betaherpesvirus 2 [4]): 2.98 | Activity (Caviid betaherpesvirus 2 [5]): 100% | Activity (Cavia porcellus [6]): Non-toxic | Activity (Caviid betaherpesvirus 2 [7]): 92% | Activity (Caviid betaherpesvirus 2 [8]): Active | fold change (FC) (Caviid betaherpesvirus 2 [9]): 10.5 | Activity (Caviid betaherpesvirus 2 [10]): 25% | Activity (Cavia porcellus [11]): Non-toxic | Activity (Cavia porcellus [12]): Non-toxic | CC50 at 240 h [13]: > 100000 nM | Activity (Cavia porcellus [14]): 103 g | Activity (Cavia porcellus [15]): 103 g | Activity (Cavia porcellus [16]): Non-toxic | Selectivity Index [17]: >25000 | Activity (Caviid betaherpesvirus 2 [18]): 85% | Activity (Caviid betaherpesvirus 2 [19]): Active | Activity (Caviid betaherpesvirus 2 [20]): 62% | fold change (FC) (Caviid betaherpesvirus 2 [21]): 6.5 | Activity (Caviid betaherpesvirus 2 [22]): 2.77 | Activity (Cavia porcellus [23]): Non-toxic | EC50 (Caviid betaherpesvirus 2 [24]): 4 nM | Activity (Caviid betaherpesvirus 2 [25]): 2.12 | Activity (Caviid betaherpesvirus 2 [26]): 77% | Activity (Caviid betaherpesvirus 2 [27]): 57% | Activity (Caviid betaherpesvirus 2 [28]): 1.87 | Activity (Cavia porcellus [29]): Non-toxic | Activity (Caviid betaherpesvirus 2 [30]): 3.01 | Activity (Caviid betaherpesvirus 2 [31]): 100% | Activity (Caviid betaherpesvirus 2 [32]): 2.09 | Activity (Cavia porcellus [33]): Non-toxic | Activity (Caviid betaherpesvirus 2 [34]): 1.65 | Activity (Caviid betaherpesvirus 2 [35]): 93.8% | Activity (Caviid betaherpesvirus 2 [36]): 100% | Activity (Caviid betaherpesvirus 2 [37]): Active | Activity (Caviid betaherpesvirus 2 [38]): 100% | Activity (Cavia porcellus [39]): Non-toxic | Activity (Cavia porcellus [40]): Non-toxic | Activity (Caviid betaherpesvirus 2 [41]): 100% | fold change (FC) (Caviid betaherpesvirus 2 [42]): 6 | Activity (Caviid betaherpesvirus 2 [43]): 2.88 | Activity (Caviid betaherpesvirus 2 [44]): 1.91 | Activity (Caviid betaherpesvirus 2 [45]): 100%
